target: ROCK2 (Homo sapiens (Human), UniProt O75116); assay: ROCK2 kinase inhibition assay (FITC peptide substrate, LABCHIP 3000 Reader); format: biochemical; details: 5 μM ATP, 1.5 μM peptide substrate
Protocol: The effectiveness of compounds of the present invention as ROCK inhibitors can be determined in a 30 μL assay containing 20 mM HEPES, pH 7.5, 20 mM MgCl2, 0.015% Brij-35, 4 mM DTT, 5 μM ATP and 1.5 μM peptide substrate (FITC-AHA-AKRRRLSSLRA-OH) (SEQ ID NO. 1). Compounds were dissolved in DMSO so that the final concentration of DMSO was <2%, and the reaction was initiated with Rho kinase variants. After incubation, the reaction was terminated by the addition of EDTA and the phosphorylated and non-phosphorylated peptides separated using a LABCHIP® 3000 Reader (Caliper Life Sciences). […] Compounds were tested in dose-response format, and the inhibition of kinase activity was calculated at each concentration of compound. The inhibition data were fit using a curve-fitting program to determine the IC50; i.e., the concentration of compound required to inhibit 50% of kinase activity.
Representative examples were tested in the ROCK2 assay described above and found having ROCK2 inhibitory activity.

Sequence of ROCK2 (O75116 whole entry, species assumed): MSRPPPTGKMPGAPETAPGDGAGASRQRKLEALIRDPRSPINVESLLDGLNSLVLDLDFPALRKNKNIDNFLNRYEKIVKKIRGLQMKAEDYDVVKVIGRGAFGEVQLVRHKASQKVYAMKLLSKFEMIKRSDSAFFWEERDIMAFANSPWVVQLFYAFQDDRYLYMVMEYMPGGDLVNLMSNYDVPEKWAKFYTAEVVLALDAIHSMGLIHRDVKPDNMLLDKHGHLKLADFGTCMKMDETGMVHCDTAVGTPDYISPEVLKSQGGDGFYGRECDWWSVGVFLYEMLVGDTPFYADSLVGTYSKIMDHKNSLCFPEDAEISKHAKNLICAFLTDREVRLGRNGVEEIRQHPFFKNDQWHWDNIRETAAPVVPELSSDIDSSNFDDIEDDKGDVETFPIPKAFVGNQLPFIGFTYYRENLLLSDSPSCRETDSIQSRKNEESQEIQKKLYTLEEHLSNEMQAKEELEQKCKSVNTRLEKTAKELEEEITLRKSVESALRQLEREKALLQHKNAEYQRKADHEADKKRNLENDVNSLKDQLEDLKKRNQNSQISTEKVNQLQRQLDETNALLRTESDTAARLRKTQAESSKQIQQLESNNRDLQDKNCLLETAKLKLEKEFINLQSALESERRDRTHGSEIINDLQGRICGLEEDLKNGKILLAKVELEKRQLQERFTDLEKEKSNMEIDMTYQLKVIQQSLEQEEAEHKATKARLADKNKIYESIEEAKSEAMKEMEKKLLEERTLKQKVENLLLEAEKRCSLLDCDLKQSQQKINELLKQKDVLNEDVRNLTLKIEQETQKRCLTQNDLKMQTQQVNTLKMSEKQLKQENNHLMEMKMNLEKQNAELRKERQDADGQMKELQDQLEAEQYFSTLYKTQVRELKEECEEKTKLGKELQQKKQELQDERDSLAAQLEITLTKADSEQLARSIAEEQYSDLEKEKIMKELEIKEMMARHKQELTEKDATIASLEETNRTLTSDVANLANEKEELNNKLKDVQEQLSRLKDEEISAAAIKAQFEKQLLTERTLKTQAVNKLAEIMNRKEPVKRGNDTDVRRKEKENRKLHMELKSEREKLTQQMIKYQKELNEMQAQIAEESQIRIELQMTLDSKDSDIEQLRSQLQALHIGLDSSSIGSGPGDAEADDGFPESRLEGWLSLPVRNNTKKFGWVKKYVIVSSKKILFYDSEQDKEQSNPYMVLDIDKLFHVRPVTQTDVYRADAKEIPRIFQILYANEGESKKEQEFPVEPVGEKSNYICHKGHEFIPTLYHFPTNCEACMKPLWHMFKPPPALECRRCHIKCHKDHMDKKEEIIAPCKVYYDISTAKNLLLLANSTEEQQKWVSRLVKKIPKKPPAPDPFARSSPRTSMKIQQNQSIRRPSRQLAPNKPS

| IC50 [nM] | Compound |
| --- | --- |
| 3 to 30 | COc1nc(N2CC3(CCN(C(=O)OC(C)(C)C)CC3)N(Cc3cccc(F)c3C)C2=O)ccc1-c1cn[nH]c1 [Example 55, tert-butyl 1-(3-fluoro-2-methylbenzyl)-3-(6-methoxy-5-(1H-pyrazol-4-yl)pyridin-2-yl)-2-oxo-1,3,8-triazaspiro[4.5]decane-8-carboxylate] |
| 3 to 30 | O=C1N(c2ccc(-c3cn[nH]c3)cc2)CC2(CCNCC2)N1Cc1cccc(F)c1F [Example 64] |
| 3 to 30 | CC1(NC(=O)c2cccc(CN3C(=O)N(c4ccc(-c5cn[nH]c5)cc4)CC34CCOCC4)c2)CC1 [Example 39, 3-((3-(4-(1H-pyrazol-4-yl)phenyl)-2-oxo-8-oxa-1,3-diazaspiro[4.5]decan-1-yl)methyl)-N-(1-methylcyclopropyl)benzamide] |
| 250 to 3000 | COc1cccc(NC2C(=O)N(c3ccc(-c4cn[nH]c4)cn3)CC23CCN(C(=O)CCN2CCCC2=O)CC3)c1 (stereo not drawn) [Example 259, 2-(5-(1H-pyrazol-4-yl)pyridin-2-yl)-4-((3-methoxy-phenyl)amino)-8-(3-(2-oxo-pyrrolidin-1-yl)pro-panoyl)-2,8-diazaspiro [4.5]decan-3-one] |
| 3 to 30 | CCOC(=O)N1CCC2(CC1)CN(c1ccc(-c3cn[nH]c3)c(CC)n1)C(=O)N2Cc1cc(F)cc(OC)c1 [Example 106, ethyl 3-(6-ethyl-5-(1H-pyrazol-4-yl)pyridin-2-yl)-1-(3-fluoro-5-methoxybenzyl)-2-oxo-1,3,8-triazaspiro[4.5]decane-8-carboxylate] |
| < 3 | COc1cc(F)cc(CN2C(=O)N(c3ccc(-c4cn[nH]c4)cc3)CC23CCN(C(=O)C2(C)COC2)CC3)c1 [Example 193, 33-(4-(1H-pyrazol-4-yl)phenyl)-1-(3-fluoro-5-methoxybenzyl)-8-(3-methyloxetane-3-carbonyl)-1,3,8-triazaspiro[4.5]decan-2-one] |
| 30 to 250 | COc1cccc(NC2C(=O)N(c3ccc(-c4cn[nH]c4)cn3)CC23CCN(C(=O)CCc2nnc(-c4ccccc4)o2)CC3)c1 (stereo not drawn) [Example 258, 2-(5-(1H-pyrazol-4-yl)pyridin-2-yl)-4-((3-methoxy-phenyl)amino)-8-(3-(5-phenyl-1,3,4-oxadiazol-2-yl)pro-panoyl)-2,8-diazaspiro [4.5]decan-3-one] |
| < 3 | CCc1nc(N2CC3(CCN(C(C)=O)CC3)N(Cc3cc(F)cc(OC)c3)C2=O)ccc1-c1cn[nH]c1 [Example 89, 8-acetyl-3-(6-ethyl-5-(1H-pyrazol-4-yl)pyridin-2-yl)-1-(3-fluoro-5-methoxybenzyl)-1,3,8-triazaspiro[4.5]decan-2-one] |
| < 3 | CCc1nc(N2CC3(CCN(C(=O)OC)CC3)N(Cc3cccc(OC)c3)C2=O)ccc1-c1cn[nH]c1 [Example 105, methyl 3-(6-ethyl-5-(1H-pyrazol-4-yl)pyridin-2-yl)-1-(3-methoxybenzyl)-2-oxo-1,3,8-triazaspiro[4.5]decane-8-carboxylate] |
| 30 to 250 | COc1cc(F)ccc1CN1C(=O)N(c2ccc(-c3cn[nH]c3)cc2)CC12CCOCC2 [Example 28, 3-(4-(1H-pyrazol-4-yl)phenyl)-1-(4-fluoro-2-methoxybenzyl)-8-oxa-1,3-diazaspiro[4.5]decan-2-one] |
| < 3 | CNC(=O)CN1CCC2(CC1)CN(c1ccc(-c3cn[nH]c3)cc1)C(=O)N2Cc1cccc(OC)c1 [Example 168, 2-(3-(4-(1H-pyrazol-4-yl)phenyl)-1-(3-methoxybenzyl)-2-oxo-1,3,8-triazaspiro[4.5]decan-8-yl)-N-methylacetamide] |
| < 3 | CCc1nc(N2CC3(CCN(C(=O)C(C)C)CC3)N(Cc3cccc(OC)c3)C2=O)ccc1-c1cn[nH]c1 [Example 201, 3-(6-ethyl-5-(1H-pyrazol-4-yl)pyridin-2-yl)-8-isobutyryl-1-(3-methoxybenzyl)-1,3,8-triazaspiro[4.5]decan-2-one] |
| < 3 | COc1cc(F)cc(CN2C(=O)N(c3ccc(-c4cn[nH]c4)cc3)CC23CC3)c1 [Example 8, 6-(4-(1H-pyrazol-4-yl)phenyl)-4-(3-fluoro-5-methoxybenzyl)-4,6-diazaspiro[2.4]heptan-5-one] |
| 30 to 250 | CC(=O)N1CCC2(CC1)CN(c1ccc(-c3cn[nH]c3)cc1)C(=O)N2Cc1cccc(F)c1F [Example 77, 3-(4-(1H-pyrazol-4-yl)phenyl)-8-acetyl-1-(2,3-difluorobenzyl)-1,3,8-triazaspiro[4.5]decan-2-one] |
| < 3 | CCc1nc(N2CC3(CCN(C(=O)C(C)O)CC3)N(Cc3cc(F)cc(OC)c3)C2=O)ccc1-c1cn[nH]c1 (stereo not drawn) [Example 188, 3-(6-ethyl-5-(1H-pyrazol-4-yl)pyridin-2-yl)-1-(3-fluoro-5-methoxybenzyl)-8-(2-hydroxypropanoyl)-1,3,8-triazaspiro[4.5]decan-2-one] |
| 30 to 250 | O=C1N(c2ccc(-c3cn[nH]c3)cc2)CC2(CCOCC2)N1Cc1cccc(C(F)(F)F)c1 [Example 18, 3-(4-(1H-pyrazol-4-yl)phenyl)-1-(3-(trifluoromethyl)benzyl)-8-oxa-1,3-diazaspiro[4.5]decan-2-one] |
| < 3 | O=C(NCC(F)(F)F)c1cccc(CN2C(=O)N(c3ccc(-c4cn[nH]c4)cc3)CC23CCOCC3)c1 [Example 38, 3-((3-(4-(1H-pyrazol-4-yl)phenyl)-2-oxo-8-oxa-1,3-diazaspiro[4.5]decan-1-yl)methyl)-N-(2,2,2-trifluoroethyl)benzamide] |
| 3 to 30 | COc1cccc(CN2C(=O)N(c3ccc(-c4cn[nH]c4)cn3)CC23CCN(C(C)=O)CC3)c1 [Example 50, 3-(5-(1H-pyrazol-4-yl)pyridin-2-yl)-8-acetyl-1-(3-methoxybenzyl)-1,3,8-triazaspiro[4.5]decan-2-one] |
| 30 to 250 | CCc1nc(N2CC3(CCN(C(=O)OC(C)(C)C)CC3)N(Cc3cccc(OC)c3)C2=O)ccc1-c1cn[nH]c1 [Example 53, tert-butyl 3-(6-ethyl-5-(1H-pyrazol-4-yl)pyridin-2-yl)-1-(3-methoxybenzyl)-2-oxo-1,3,8-triazaspiro[4.5]decane-8-carboxylate] |
| < 3 | COc1cccc(CN2C(=O)N(c3ccc(-c4cn[nH]c4)cn3)CC23CCN(CCO)CC3)c1 [Example 159, 3-(5-(1H-pyrazol-4-yl)pyridin-2-yl)-8-(2-hydroxyethyl)-1-(3-methoxybenzyl)-1,3,8-triazaspiro[4.5]decan-2-one] |
| 250 to 3000 | COc1cccc(NC2C(=O)N(c3ccc(-c4cn[nH]c4)cc3)CC23CCN(CC(C)(C)O)CC3)c1 (stereo not drawn) [Example 253, 2-(4-(1H-pyrazol-4-yl)phenyl)-8-(2-hydroxy-2-methylpropyl)-4-((3-methoxy-phenyl)amino)-2,8-diazaspiro [4.5]decan-3-one] |
| < 3 | CCc1nc(N2CC3(CCN(CC(C)(C)O)CC3)N(Cc3cc(F)cc(OC)c3)C2=O)ccc1-c1cn[nH]c1 [Example 155, 3-(6-ethyl-5-(1H-pyrazol-4-yl)pyridin-2-yl)-1-(3-fluoro-5-methoxybenzyl)-8-(2-hydroxy-2-methylpropyl)-1,3,8-triazaspiro[4.5]decan-2-one] |
| 250 to 3000 | COc1cccc(NC2C(=O)N(c3ccc(-c4cn[nH]c4)cc3)CC23CCN(CCO)CC3)c1 (stereo not drawn) [Example 252, 2-(4-(1H-pyrazol-4-yl)phenyl)-8-(2-hydroxy-ethyl)-4-((3-methoxy-phenyl)amino)-2,8-diazaspiro [4.5]decan-3-one] |

| Compound | IC50 [nM] |
| --- | --- |
| COc1nc(N2CC3(CCN(CC(F)F)CC3)N(Cc3cccc(F)c3C)C2=O)ccc1-c1cn[nH]c1 [Example 137] | < 3 |
